Assays:
rat [1] = conditions: Combined chronic toxicity/carcinogenicity; sprague dawley; Oral; Feed; dose end: 2 year; group: systemic; systemic / in life observation / body weight / body weight gain
rat [2] = conditions: Subchronic oral toxicity in rodents, other, Feed, dose end: 92 day, group: systemic
rabbit [3] = conditions: Prenatal developmental toxicity study, new zealand white, Oral, Gavage/Intubation, dose end: 19 GD
rat [4] = conditions: Combined chronic toxicity/carcinogenicity, sprague dawley, Oral, Feed, dose end: 104 week, group: systemic
rat [5] = conditions: Subchronic oral toxicity in rodents, Tif: RAIf (SPF), Feed, dose end: 13 week, group: systemic, systemic / in life observation / body weight / body weight + systemic / in life observation / body weight / body weight gain + systemic / …
dog [6] = conditions: Subchronic oral toxicity in nonrodent, beagle, Feed, dose end: 13 week, group: systemic
mouse [7] = conditions: Carcinogenicity, cd1, Oral, Feed, dose end: 91 week, group: systemic
rabbit [8] = conditions: Prenatal developmental toxicity study, new zealand white, Oral, Gavage/Intubation, dose end: 19 GD; remark: listed apart in the source
rat [9] = conditions: Prenatal developmental toxicity study, sprague dawley, Oral, Gavage/Intubation, dose end: 15 GD
dog [10] = conditions: Chronic toxicity; beagle; Oral; Feed; dose end: 52 week; group: systemic; systemic / in life observation / clinical signs / [other] + systemic / in life observation / clinical signs / tachycardia + systemic / …
dog [11] = conditions: Chronic toxicity; beagle; Oral; Feed; dose end: 52 week; group: systemic; systemic / pathology gross / heart / discolored + systemic / pathology gross / heart / distended + systemic / pathology gross / heart / …
dog [12] = conditions: Chronic toxicity, beagle, Oral, Capsule, dose end: 52 week
rat [13] = conditions: Multigenerational reproductive toxicity study, sprague dawley, Oral, Feed, dose end: 2 generation
mouse [14] = conditions: Carcinogenicity, cd1, Oral, Feed, dose end: 2 year, group: systemic
rat [15] = conditions: Combined chronic toxicity/carcinogenicity, sprague dawley, Oral, Feed, dose end: 24 month
mouse [16] = conditions: Carcinogenicity, b6c3f1, Oral, Feed, dose end: 78 week, group: systemic
rat [17] = conditions: Carcinogenicity, other, Oral, Feed, dose end: 78 week, group: systemic
mouse [18] = conditions: Carcinogenicity; b6c3f1; Oral; Feed; dose end: 24 month; group: systemic; systemic / in life observation / body weight / body weight gain
[19] = systemic / hematology / leukocyte (wbc) count differential / leukocyte (wbc)
[20] = group: developmental, developmental / developmental malformation / bone / delayed ossification
[21] = group: maternal, reproductive / reproductive performance / resorptions / resorptions + systemic / in life observation / body weight / body weight + systemic…
[22] = systemic / in life observation / body weight / body weight gain + systemic / in life observation / food consumption / food consumption + …
[23] = systemic / pathology microscopic / kidney / basophilia + systemic / pathology microscopic / kidney / hyperplasia + systemic / hematology / …
[24] = systemic / in life observation / body weight / body weight gain + systemic / hematology / erythrocyte (rbc) count differential / erythrocyte…
[25] = group: maternal, reproductive / reproductive performance / resorptions / resorptions + systemic / in life observation / clinical signs / discharge on …
[26] = group: developmental, developmental / developmental malformation / bone / incomplete ossification
[27] = group: maternal, reproductive / reproductive performance / aborted / aborted + systemic / in life observation / body weight / body weight gain + systemic / …
[28] = group: cholinesterase, cholinesterase / cholinesterase / cholinesterase / brain cholinesterase (che) + cholinesterase / cholinesterase / cholinesterase / plasma …
[29] = group: systemic, systemic / in life observation / body weight / body weight gain + systemic / in life observation / food consumption / food efficiency + …
[30] = group: offspring, developmental / offspring survival late / lactation index / lactation index
[31] = group: offspring, systemic / in life observation / body weight / offspring (pup) weight
[32] = group: parental, systemic / in life observation / body weight / body weight
[33] = group: reproductive, reproductive / offspring survival early / litter size / litter size
[34] = group: reproductive, reproductive / offspring survival early / litter size / litter size + reproductive / offspring survival early / litter viability other / …
[35] = systemic / in life observation / mortality / mortality + systemic / hematology / lymphocyte / lymphocyte + systemic / in life observation / …
[36] = group: cholinesterase, cholinesterase / cholinesterase / cholinesterase / brain cholinesterase (che) + cholinesterase / cholinesterase / cholinesterase / …
[37] = group: systemic, systemic / in life observation / mortality / mortality
[38] = group: systemic, systemic / in life observation / mortality / mortality + systemic / clinical chemistry / alanine aminotransferase (alt/sgpt) / alanine …
[39] = systemic / in life observation / body weight / body weight
[40] = systemic / in life observation / body weight / body weight + systemic / pathology microscopic / liver / carcinoma + systemic / in life …
[41] = systemic / in life observation / body weight / body weight + systemic / pathology microscopic / testes / atrophy
[42] = systemic / pathology microscopic / adrenal gland / adenoma + systemic / in life observation / body weight / body weight + systemic / in life…

Which results are given for `CCNc1nc(Cl)nc(NC(C)C)n1` [Atrazine]?
LEL (rat [1]): 25 mg/kg/day; LOAEL (rat [1]): 25 mg/kg/day; NEL (rat [1]): 3.5 mg/kg/day; NOAEL (rat [1]): 3.5 mg/kg/day; LEL (rat [2]; [19]): 0.659 mg/kg/day; NEL (rat [2]; [19]): < 0.659 mg/kg/day; LOAEL (rat [2]; systemic / in life observation / body weight / body weight + systemic / in life observation / body weight / body weight gain): 34 mg/kg/day; NOAEL (rat [2]; systemic / in life observation / body weight / body weight + systemic / in life observation / body weight / body weight gain + systemic / …): 3.3 mg/kg/day; LEL (rabbit [3]; [20]): 75 mg/kg/day; LOAEL (rabbit [3]; [20]): 75 mg/kg/day; NEL (rabbit [3]; [20]): 5 mg/kg/day; NOAEL (rabbit [3]; [20]): 5 mg/kg/day; LEL (rabbit [3]; [21]): 75 mg/kg/day; LOAEL (rabbit [3]; [21]): 75 mg/kg/day; NEL (rabbit [3]; [21]): 5 mg/kg/day; NOAEL (rabbit [3]; [21]): 5 mg/kg/day; LOAEL (rat [4]; systemic / in life observation / body weight / body weight gain + systemic / in life observation / food consumption / food consumption): 25 mg/kg/day; NEL (rat [4]; [22]): 0.5 mg/kg/day; NOAEL (rat [4]; [22]): 3.5 mg/kg/day; LEL (rat [4]; systemic / pathology microscopic / mammary gland / adenocarcinoma): 3.5 mg/kg/day; LEL (rat [5]): 34.9 mg/kg/day; LOAEL (rat [5]): 34.9 mg/kg/day; NEL (rat [5]): 3.2 mg/kg/day; NOAEL (rat [5]): 3.2 mg/kg/day; LOAEL (dog [6]; systemic / pathology microscopic / kidney / basophilia + systemic / pathology microscopic / kidney / hyperplasia): 28.9 mg/kg/day; LEL (dog [6]; [23]): 28.9 mg/kg/day; NEL (dog [6]; [23]): 3.71 mg/kg/day; NOAEL (dog [6]; [23]): 3.71 mg/kg/day; LOAEL (mouse [7]; systemic / in life observation / body weight / body weight gain): 194 mg/kg/day; LEL (mouse [7]; [24]): 194 mg/kg/day; NEL (mouse [7]; [24]): 38.4 mg/kg/day; NOAEL (mouse [7]; [24]): 38.4 mg/kg/day; LEL (rabbit [8]; [20]): 75 mg/kg/day; LOAEL (rabbit [8]; [20]): 75 mg/kg/day; NEL (rabbit [8]; [20]): 5 mg/kg/day; NOAEL (rabbit [8]; [20]): 5 mg/kg/day; LEL (rabbit [8]; [25]): 75 mg/kg/day; LOAEL (rabbit [8]; [25]): 75 mg/kg/day; NEL (rabbit [8]; [25]): 5 mg/kg/day; NOAEL (rabbit [8]; [25]): 5 mg/kg/day; LEL (rat [9]; [26]): 5 mg/kg/day; LOAEL (rat [9]; [26]): 100 mg/kg/day; NEL (rat [9]; [26]): < 5 mg/kg/day; NOAEL (rat [9]; [26]): 25 mg/kg/day; LEL (rat [9]; group: maternal, reproductive / reproductive performance / aborted / aborted): 25 mg/kg/day; NEL (rat [9]; [27]): 5 mg/kg/day; NOAEL (rat [9]; [27]): 25 mg/kg/day; LOAEL (rat [9]; group: maternal, systemic / in life observation / body weight / body weight gain + systemic / in life observation / food consumption / food consumption): 100 mg/kg/day; LEL (dog [10]): 33.6 mg/kg/day; LOAEL (dog [10]): 33.6 mg/kg/day; NEL (dog [10]): 4.97 mg/kg/day; NOAEL (dog [10]): 4.97 mg/kg/day; LEL (dog [11]): 24.1 mg/kg/day; LOAEL (dog [11]): 24.1 mg/kg/day; NEL (dog [11]): 3.61 mg/kg/day; NOAEL (dog [11]): 3.61 mg/kg/day

How did the LEL (dog [12]; [28]) turn out when `COP(=O)(OC)O/C(C)=C/C(=O)N(C)C` [Dicrotophos] was run?
The LEL was 0.1 mg/kg/day.

And the LOAEL (dog [12]; [28])?
The LOAEL was 0.1 mg/kg/day.

And the NEL (dog [12]; [28])?
The NEL was 0.025 mg/kg/day.

What about the NOAEL (dog [12]; [28]) of the same compound?
The NOAEL was 0.025 mg/kg/day.

And the LOAEL (dog [12]; group: systemic, systemic / in life observation / body weight / body weight gain + systemic / in life observation / food consumption / food efficiency)?
Its LOAEL is 0.1 mg/kg/day.

What about the LEL (dog [12]; [29]) of the same compound?
Its LEL is 0.1 mg/kg/day.

And the NEL (dog [12]; [29])?
Its NEL is 0.025 mg/kg/day.

And the NOAEL (dog [12]; [29])?
Its NOAEL is 0.025 mg/kg/day.

What about the LOAEL (rat [13]; [30]) of the same compound?
The LOAEL was greater than 2.53 mg/kg/day.

What about the NOAEL (rat [13]; [30]) of the same compound?
Its NOAEL is no less than 2.53 mg/kg/day.

What about the LEL (rat [13]; [31]) of the same compound?
Its LEL is 0.05 mg/kg/day.

What about the NEL (rat [13]; [31]) of the same compound?
Its NEL is less than 0.05 mg/kg/day.

And the LEL (rat [13]; [32])?
Its LEL is 0.06 mg/kg/day.

What about the NEL (rat [13]; [32]) of the same compound?
The NEL was less than 0.06 mg/kg/day.

And the LOAEL (rat [13]; group: parental, systemic / in life observation / body weight / body weight + systemic / in life observation / food consumption / food efficiency)?
Its LOAEL is 0.49 mg/kg/day.

What about the NOAEL (rat [13]; group: parental, systemic / in life observation / body weight / body weight + systemic / in life observation / food consumption / food efficiency + systemic…) of the same compound?
Its NOAEL is 0.05 mg/kg/day.

What about the LEL (rat [13]; [33]) of the same compound?
The LEL was 0.56 mg/kg/day.

What about the LOAEL (rat [13]; [33]) of the same compound?
Its LOAEL is 0.56 mg/kg/day.

What about the NEL (rat [13]; [34]) of the same compound?
The NEL was 0.05 mg/kg/day.

What about the NOAEL (rat [13]; [34]) of the same compound?
The NOAEL was 0.05 mg/kg/day.

And the LOAEL (mouse [14]; systemic / in life observation / mortality / mortality)?
Its LOAEL is 1.58 mg/kg/day.

And the NEL (mouse [14]; [35])?
Its NEL is 0.31 mg/kg/day.

What about the NOAEL (mouse [14]; [35]) of the same compound?
Its NOAEL is 0.31 mg/kg/day.

What about the LEL (mouse [14]; systemic / in life observation / mortality / mortality + systemic / pathology gross / eye / discolored) of the same compound?
Its LEL is 1.58 mg/kg/day.

What about the LEL (rat [15]; [36]) of the same compound?
The LEL was 0.02 mg/kg/day.

What about the LOAEL (rat [15]; [36]) of the same compound?
Its LOAEL is 0.02 mg/kg/day.

What about the NEL (rat [15]; [36]) of the same compound?
Its NEL is less than 0.02 mg/kg/day.

And the NOAEL (rat [15]; [36])?
Its NOAEL is less than 0.02 mg/kg/day.

What about the LEL (rat [15]; [37]) of the same compound?
Its LEL is 0.25 mg/kg/day.

What about the LOAEL (rat [15]; [37]) of the same compound?
Its LOAEL is 0.25 mg/kg/day.

What about the NEL (rat [15]; [38]) of the same compound?
Its NEL is 0.02 mg/kg/day.

What about the NOAEL (rat [15]; [38]) of the same compound?
Its NOAEL is 0.02 mg/kg/day.

What does the source list for `CCOC(=O)C(O)(c1ccc(Cl)cc1)c1ccc(Cl)cc1` [Chlorobenzilate]?
LOAEL (mouse [16]; [39]): 480 mg/kg/day; NOAEL (mouse [16]; [39]): < 480 mg/kg/day; LEL (mouse [16]; [40]): 480 mg/kg/day; NEL (mouse [16]; [40]): < 480 mg/kg/day; LOAEL (rat [17]; [41]): 80 mg/kg/day; NOAEL (rat [17]; [41]): < 80 mg/kg/day; LEL (rat [17]; [42]): 58.8 mg/kg/day; NEL (rat [17]; [42]): < 58.8 mg/kg/day

With `Cc1c(C(=O)O)c(O)cc2c1C(=O)c1c(O)c([C@@H]3O[C@H](CO)[C@@H](O)[C@H](O)[C@H]3O)c(O)c(O)c1C2=O` [Carminic acid] as the compound, how does the LEL (mouse [18]) read?
The LEL was 4500 mg/kg/day.

And the LOAEL (mouse [18])?
Its LOAEL is greater than 9000 mg/kg/day.

What about the NEL (mouse [18]) of the same compound?
Its NEL is less than 4500 mg/kg/day.

What about the NOAEL (mouse [18]) of the same compound?
The NOAEL was no less than 9000 mg/kg/day.

Source: EPA's ToxRefDB 2
